Experiment [1] addresses T1, recombinant human dopamine D2L receptors (Homo sapiens, UniProt P14416).
T1 construct: expressed in transfected cells; host or cells: HEK-293 (HEK-D2L), membrane homogenates
The experiment is described as follows: Dopamine Binding Assay. The note with it: HEK-D2L cell membranes, 150 pM [3H]-spiperone, Cheng and Prusoff. In short, it runs like this: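 Competition binding on HEK-293 membranes stably expressing human D2L (~5 μg protein) with 150 pM [3H]-spiperone, 1.5 h at 22 °C in 50 mM Tris pH 7.4, 1 mM EDTA, 6 mM MgCl2. Filtration read-out; non-specific binding defined with 2 μM (+)butaclamol, Ki by Cheng-Prusoff.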

In experiment [2] the target is T2, human serotonin transporters (Homo sapiens, UniProt P31645).
T2 construct: expressed in transfected cells; host or cells: HEK-293 (HEK-hSERT), membrane homogenates
T2 sequence (P31645 whole entry): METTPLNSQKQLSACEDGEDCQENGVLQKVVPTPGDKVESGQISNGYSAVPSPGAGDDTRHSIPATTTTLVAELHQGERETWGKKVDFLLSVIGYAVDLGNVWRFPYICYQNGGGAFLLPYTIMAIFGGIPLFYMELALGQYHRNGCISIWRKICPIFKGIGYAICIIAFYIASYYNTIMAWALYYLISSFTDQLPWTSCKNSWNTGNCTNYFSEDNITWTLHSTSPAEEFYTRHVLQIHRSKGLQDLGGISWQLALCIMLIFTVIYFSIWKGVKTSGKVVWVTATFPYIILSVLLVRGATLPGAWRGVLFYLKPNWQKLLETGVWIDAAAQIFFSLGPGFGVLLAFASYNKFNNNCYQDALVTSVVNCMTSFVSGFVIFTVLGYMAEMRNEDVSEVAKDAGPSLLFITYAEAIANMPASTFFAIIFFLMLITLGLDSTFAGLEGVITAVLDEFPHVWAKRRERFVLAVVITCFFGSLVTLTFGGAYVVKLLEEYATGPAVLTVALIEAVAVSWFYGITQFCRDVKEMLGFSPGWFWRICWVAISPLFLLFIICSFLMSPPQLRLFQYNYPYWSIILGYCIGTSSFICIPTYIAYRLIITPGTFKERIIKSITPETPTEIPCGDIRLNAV
Briefly: Serotonin Transporter Binding Assay. As to conditions: HEK-hSERT cell membranes, 1 nM [3H]-citalopram, Cheng and Prusoff. In short, it runs like this: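 Displacement of 1 nM [^3H]-citalopram (1 hr, 25° C, Tris pH 7.4 with NaCl/KCl) from membranes of HEK-293 cells stably expressing human SERT, with bound ligand read after filtration. 10 μM fluoxetine defined non-specific binding. Ki values were derived via Cheng–Prusoff from IC50 displacement-curve midpoints.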

Like-named read-outs stand apart in the source and are kept apart here.

T1 sequence (P14416 whole entry): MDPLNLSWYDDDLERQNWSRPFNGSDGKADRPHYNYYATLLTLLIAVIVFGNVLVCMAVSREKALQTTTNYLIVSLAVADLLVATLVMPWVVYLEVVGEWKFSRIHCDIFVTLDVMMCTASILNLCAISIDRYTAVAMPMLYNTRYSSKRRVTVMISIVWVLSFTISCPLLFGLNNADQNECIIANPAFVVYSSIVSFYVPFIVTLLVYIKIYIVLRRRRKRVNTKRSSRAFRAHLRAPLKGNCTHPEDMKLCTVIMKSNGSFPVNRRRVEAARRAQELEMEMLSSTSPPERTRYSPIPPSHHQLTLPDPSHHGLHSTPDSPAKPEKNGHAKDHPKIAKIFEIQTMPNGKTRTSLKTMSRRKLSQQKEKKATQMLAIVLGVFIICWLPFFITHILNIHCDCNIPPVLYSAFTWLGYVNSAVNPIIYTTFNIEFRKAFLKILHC

As a reminder, the Ki is the dissociation constant of the complex between target and ligand, obtained from inhibition or displacement. `CCN(CCCNC(=O)OC)C[C@@H]1C[C@H]1c1c[nH]c2ccc(F)cc12` (relative stereo) [Example 112, trans-1-[N,N-Ethyl-2-amino(methylcarbamoyl)propylaminomethyl]-2-[5-fluoroindol-3-yl]-cyclopropane]: the results for the Ki in experiment [1] and in experiment [2] (read-out: SERT Ki) were 0.1 to 1 µM and 10 to 100 nM, respectively.

In the case of `CCOC(=O)NCCN(CC)C[C@@H]1C[C@H]1c1c[nH]c2ccc(C#N)cc12` (relative stereo) [Example 94, trans-2-[5-Cyanoindol-3-yl]-1-[N,N-ethyl-2-amino(ethylcarbamoyl)ethylaminomethyl]-cyclopropane], the Ki is above 1 µM in experiment [1] and below 1 nM in experiment [2] (read-out: SERT Ki).

For `CN(C)CC1CC1Cc1ccc2[nH]cc(C#N)c2c1` (centres unmarked) [Example 153, 5-(2-Dimethylaminomethyl-cyclopropylmethyl)-1H-indole-3-carbonitrile], the Ki was above 1 µM in experiment [1] and 10 to 100 nM in experiment [2] (read-out: SERT Ki).

On to `CC(C)CCNCC1CC1c1c[nH]c2ccc(C#N)cc12` (stereo not drawn) [Example 32, trans-2-[5-Cyanoindol-3-yl]-1-[N-3-methyl-butylaminomethyl]-cyclopropane], for which the Ki in experiment [1] fell in the range of 0.01 to 0.1 µM; in experiment [2] (read-out: SERT Ki), 10 to 100 nM.

`COc1ccc(CCNC[C@@H]2C[C@H]2c2c[nH]c3ccc(C#N)cc23)cc1` (relative stereo) [Example 43]: the Ki in experiment [1] fell in the range of 0.01 to 0.1 µM; in experiment [2] (read-out: SERT Ki), 1 to 10 nM.

`Fc1ccc2[nH]cc(C3CC3CNCc3cccnc3)c2c1` (stereo not drawn) [Example 57, trans-2-[5-Fluoroindol-3-yl]-1-[N-(3-pyridylmethyl)aminomethyl]-cyclopropane]: the results for the Ki in experiment [1] and in experiment [2] (read-out: SERT Ki) were 0.01 to 0.1 µM and 10 to 100 nM, respectively.

Regarding `CCOC(=O)NCCN(CC)C[C@@H]1C[C@H]1c1c[nH]c2ccc(F)cc12` (relative stereo) [Example 109], the Ki in experiment [1] lay in the range of 0.1 to 1 µM; in experiment [2] (read-out: SERT Ki) it was 1 to 10 nM.

As for `CC(C1CC1c1c[nH]c2ccc(C#N)cc12)N(C)C` (racemic) [Example 121, trans-3-[2-(1-Dimethylamino-ethyl)-cyclopropyl]-1H-indole-5-carbonitrile], the Ki in experiment [1] was above 1 µM; in experiment [2] (SERT Ki (nM)), below 1 nM.

Turning to `CCN(C)CC1CC1c1c[nH]c2ccc(F)cc12` (stereo not drawn) [Example 184, cis-1-(N-ethyl-N-methylaminomethyl)-2-[5-fluoroindol-3-yl]-cyclopropane], the Ki in experiment [1] is above 1 µM; in experiment [2] (SERT Ki (nM)), 10 to 100 nM.

Consider `CNCC1CC1c1c[nH]c2ccc(F)cc12` (centres unmarked) [Example 132], for which the Ki in experiment [1] fell in the range of 0.1 to 1 µM; in experiment [2] (read-out: SERT Ki), 10 to 100 nM.

On to `CCNCC1CC1c1c[nH]c2ccc(F)cc12` (centres unmarked) [Example 136], for which the Ki in experiment [1] is above 1 µM; in experiment [2] (SERT Ki (nM)) it was 10 to 100 nM.

Regarding `CCN(CC)CCC1CC1c1c[nH]c2ccc(C#N)cc12` (centres unmarked) [Example 144, 3-[2-(2-Diethylamino-ethyl)-cyclopropyl]-1H-indole-5-carbonitrile], the Ki in experiment [1] lay in the range of 0.1 to 1 µM; in experiment [2] (read-out: SERT Ki), 10 to 100 nM.

For `Fc1ccc2[nH]cc(C3CC3CNCCCc3cccnc3)c2c1` (stereo not drawn) [Example 63, trans-2-[5-Fluoroindol-3-yl]-1-[N-3-(3-pyridyl)propylaminomethyl]-cyclopropane], the Ki lay in the range of 0.01 to 0.1 µM in experiment [1] and 10 to 100 nM in experiment [2] (read-out: SERT Ki).

For `N#Cc1ccc2[nH]cc(C3CC3CN3CCCCC3)c2c1` (stereo not drawn) [Example 47, trans-2-[5-Cyanoindol-3-yl]-1-[piperidin-1-yl-methyl]-cyclopropane], the Ki was 0.1 to 1 µM in experiment [1] and 10 to 100 nM in experiment [2] (read-out: SERT Ki).

For the molecule `Fc1ccc2[nH]cc(C3CC3CNCc3ccncc3)c2c1` (stereo not drawn) [Example 58, trans-2-[5-Fluoroindol-3-yl]-1-[N-(4-pyridylmethyl)aminomethyl]-cyclopropane], the Ki in experiment [1] fell in the range of 0.01 to 0.1 µM; in experiment [2] (read-out: SERT Ki), 10 to 100 nM.

For the molecule `CC(C)OC(=O)NCCCN(C)C[C@@H]1C[C@H]1c1c[nH]c2ccc(F)cc12` (relative stereo) [Example 107, trans-2-[5-Fluoroindol-3-yl]-1-[N,N-methyl-2-amino(isopropylcarbamoyl)propylaminomethyl]-cyclopropane], the Ki in experiment [1] was 0.1 to 1 µM; in experiment [2] (read-out: SERT Ki) it was 10 to 100 nM.

As for `CCN(CC)CC1CC1c1c[nH]c2ccc(F)cc12` (centres unmarked) [Example 183], the Ki was above 1 µM in experiment [1] and 10 to 100 nM in experiment [2] (SERT Ki (nM)).

Consider `COc1ccccc1CNCC1CC1c1c[nH]c2ccc(F)cc12` (stereo not drawn) [Example 50, trans-2-[5-Fluoroindol-3-yl]-1-[N-(2-methoxybenzyl)aminomethyl]-cyclopropane], for which the Ki in experiment [1] is 0.01 to 0.1 µM; in experiment [2] (read-out: SERT Ki), 1 to 10 nM.

Take `CCN(CCCNC(=O)OC(C)C)C[C@@H]1C[C@H]1c1c[nH]c2ccc(C#N)cc12` (relative stereo) [Example 100, trans-2-[5-Cyanoindol-3-yl]-1-[N,N-ethyl-2-amino(isopropylcarbamoyl)propylaniinomethyl]-cyclopropane]: the Ki in experiment [1] is above 1 µM; in experiment [2] (read-out: SERT Ki), 10 to 100 nM.

For `CN(C)CC1CC1c1c[nH]c2ccccc12` (centres unmarked) [Example 143], the Ki in experiment [1] is above 1 µM; in experiment [2] (SERT Ki (nM)), 10 to 100 nM.

`CCCOC(=O)NCCCN(C)C[C@@H]1C[C@H]1c1c[nH]c2ccc(F)cc12` (relative stereo) [Example 106, trans-2-[5-Fluoroindol-3-yl]-1-[N,N-methyl-2-amino(propylcarbamoyl)propylaminomethyl]-cyclopropane]: the Ki in experiment [1] was in the range of 0.1 to 1 µM; in experiment [2] (read-out: SERT Ki), 10 to 100 nM.

For `CCN(CCNC(=O)OC(C)C)C[C@@H]1C[C@H]1c1c[nH]c2ccc(C#N)cc12` (relative stereo) [Example 96, trans-2-[5-Cyanoindol-3-yl]-1-[N,N-ethyl-2-amino(isopropylcarbamoyl)ethylaminomethyl]-cyclopropane], the values for the Ki in experiment [1] and in experiment [2] (read-out: SERT Ki) were 0.1 to 1 µM and 1 to 10 nM, respectively.

Regarding `CN(CCc1ccccc1)C[C@@H]1C[C@H]1c1c[nH]c2ccc(F)cc12` (relative stereo) [Example 78, trans-2-[5-Fluoroindol-3-yl]-1-[N,N-methyl-phenylethylaminomethyl]-cyclopropane], the Ki lay in the range of 0.1 to 1 µM in experiment [1] and 1 to 10 nM in experiment [2] (read-out: SERT Ki).

With `N#Cc1ccc2[nH]cc(C3CC3CN3CCN(Cc4ccccc4)CC3)c2c1` (stereo not drawn) [Example 36, trans-1-[4-Benzyl-piperazin-1-yl-methyl]-2-[5-cyanoindol-3-yl]-cyclopropane], the Ki in experiment [1] lay within 0.01 to 0.1 µM; in experiment [2] (read-out: SERT Ki), 10 to 100 nM.

On to `CN(C)CC1CC1c1c[nH]c2ccc(C#N)cc12` (single isomer, unassigned) [Example 129a, Cis-2-[5-Cyanoindol-3-yl]-1-(N,N-dimethylaminomethyl)cyclopropane], for which the Ki is above 1 µM in experiment [1] and 10 to 100 nM in experiment [2] (SERT Ki (nM)).

Turning to `N#Cc1ccc2[nH]cc(C3CC3CNCc3cccnc3)c2c1` (stereo not drawn) [Example 15, trans-2-[5-Cyanoindol-3-yl]-1-[N-(3-pyridyl)methylaminomethyl]-cyclopropane], the results for the Ki in experiment [1] and in experiment [2] (read-out: SERT Ki) were 0.1 to 1 µM and 10 to 100 nM, respectively.

Regarding `CN(C)CC1CC1c1c[nH]c2ccc(C#N)cc12` (single isomer, unassigned) [Example 117, Cis-2-[5-Cyanoindol-3-yl]-1-(N,N-dimethylaminomethyl)cyclopropane], the Ki in experiment [1] was above 1 µM; in experiment [2] (SERT Ki (nM)), 1 to 10 nM.

As for `CCCOC(=O)NCCCN(CC)C[C@@H]1C[C@H]1c1c[nH]c2ccc(F)cc12` (relative stereo) [Example 114, trans-1-[N,N-Ethyl-2-amino(propylcarbamoyl)propylaminomethyl]-2-[5-fluoroindol-3-yl]-cyclopropane], the figures for the Ki in experiment [1] and in experiment [2] (read-out: SERT Ki) were 0.1 to 1 µM and 10 to 100 nM, respectively.

The values are drawn from patent US6822100B2 (Bristol-Myers Squibb Company, priority 2001, dated 2004).
